{"source": "paper doi:10.1101/2023.07.29.547699", "about": "“Bacterial pathogens deliver water/solute-permeable channels as a virulence strategy” (bioRxiv, 2023)", "key": {"DspE [1]": {"molecular_target": "T1, DspE (Erwinia amylovora, UniProt O54581)", "T1 construct": "full-length untagged ORF in pGH19, cRNA-injected Xenopus laevis oocytes; printed UniProt entry is strain Ea321, strain of the oocyte ORF not restated", "T1 sequence (O54581 whole entry)": "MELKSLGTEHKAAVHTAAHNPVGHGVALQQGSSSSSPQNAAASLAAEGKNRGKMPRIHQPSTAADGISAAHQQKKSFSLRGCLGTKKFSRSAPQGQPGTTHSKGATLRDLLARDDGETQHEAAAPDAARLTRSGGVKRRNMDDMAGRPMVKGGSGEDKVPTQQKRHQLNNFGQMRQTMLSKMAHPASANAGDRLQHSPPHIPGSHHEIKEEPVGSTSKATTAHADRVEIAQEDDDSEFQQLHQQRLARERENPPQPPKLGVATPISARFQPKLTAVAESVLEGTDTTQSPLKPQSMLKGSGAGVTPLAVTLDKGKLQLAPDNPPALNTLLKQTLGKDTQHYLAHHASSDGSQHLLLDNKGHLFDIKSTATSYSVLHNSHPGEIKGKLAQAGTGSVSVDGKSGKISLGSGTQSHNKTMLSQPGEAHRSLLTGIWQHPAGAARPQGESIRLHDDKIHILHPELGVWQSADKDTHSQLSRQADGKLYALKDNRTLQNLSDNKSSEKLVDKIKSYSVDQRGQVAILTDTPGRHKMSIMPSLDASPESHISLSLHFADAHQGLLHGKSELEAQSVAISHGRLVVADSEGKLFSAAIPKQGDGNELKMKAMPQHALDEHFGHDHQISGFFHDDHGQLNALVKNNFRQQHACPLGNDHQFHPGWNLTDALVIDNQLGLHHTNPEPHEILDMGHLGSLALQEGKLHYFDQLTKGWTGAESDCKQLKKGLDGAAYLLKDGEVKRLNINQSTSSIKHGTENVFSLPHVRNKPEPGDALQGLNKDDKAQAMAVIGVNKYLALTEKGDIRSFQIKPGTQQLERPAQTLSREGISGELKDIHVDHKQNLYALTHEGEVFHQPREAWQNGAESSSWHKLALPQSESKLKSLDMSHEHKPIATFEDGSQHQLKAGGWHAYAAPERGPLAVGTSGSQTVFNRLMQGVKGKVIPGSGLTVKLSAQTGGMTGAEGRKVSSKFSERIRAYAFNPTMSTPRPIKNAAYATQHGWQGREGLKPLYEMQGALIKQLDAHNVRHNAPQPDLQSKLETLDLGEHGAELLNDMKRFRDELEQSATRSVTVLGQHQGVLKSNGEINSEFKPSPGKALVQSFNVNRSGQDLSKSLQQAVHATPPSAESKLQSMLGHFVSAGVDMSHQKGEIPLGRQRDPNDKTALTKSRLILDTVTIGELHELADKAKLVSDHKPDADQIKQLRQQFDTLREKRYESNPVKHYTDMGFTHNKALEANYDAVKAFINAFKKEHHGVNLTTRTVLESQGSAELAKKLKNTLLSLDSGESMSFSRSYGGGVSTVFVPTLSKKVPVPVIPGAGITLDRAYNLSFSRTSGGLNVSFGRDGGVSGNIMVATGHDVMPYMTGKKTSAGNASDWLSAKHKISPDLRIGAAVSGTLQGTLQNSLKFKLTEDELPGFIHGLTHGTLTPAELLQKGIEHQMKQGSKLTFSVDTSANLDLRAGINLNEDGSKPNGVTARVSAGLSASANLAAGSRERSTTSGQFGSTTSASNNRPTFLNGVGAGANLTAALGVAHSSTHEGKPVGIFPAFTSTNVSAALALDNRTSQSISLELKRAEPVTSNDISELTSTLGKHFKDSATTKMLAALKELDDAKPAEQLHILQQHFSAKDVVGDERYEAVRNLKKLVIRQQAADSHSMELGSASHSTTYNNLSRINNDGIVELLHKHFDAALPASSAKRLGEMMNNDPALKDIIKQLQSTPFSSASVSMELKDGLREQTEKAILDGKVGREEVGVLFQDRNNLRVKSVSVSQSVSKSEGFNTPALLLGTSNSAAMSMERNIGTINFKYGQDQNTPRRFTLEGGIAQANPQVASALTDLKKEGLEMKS", "test": "two-electrode voltage clamp, Xenopus oocytes", "format": "cell-based"}, "DspE [2]": {"molecular_target": "T1, DspE", "test": "fluorescent dye uptake, Xenopus oocytes", "format": "cell-based", "details": "permeation through channel; ND96 bath saline with fluorescein, 20 h"}, "AvrE [3]": {"molecular_target": "T2, AvrE (Pseudomonas syringae group genomosp. 3, UniProt Q887C9)", "T2 construct": "full-length untagged ORF in pGH19, cRNA-injected Xenopus laevis oocytes", "T2 sequence (Q887C9 whole entry)": "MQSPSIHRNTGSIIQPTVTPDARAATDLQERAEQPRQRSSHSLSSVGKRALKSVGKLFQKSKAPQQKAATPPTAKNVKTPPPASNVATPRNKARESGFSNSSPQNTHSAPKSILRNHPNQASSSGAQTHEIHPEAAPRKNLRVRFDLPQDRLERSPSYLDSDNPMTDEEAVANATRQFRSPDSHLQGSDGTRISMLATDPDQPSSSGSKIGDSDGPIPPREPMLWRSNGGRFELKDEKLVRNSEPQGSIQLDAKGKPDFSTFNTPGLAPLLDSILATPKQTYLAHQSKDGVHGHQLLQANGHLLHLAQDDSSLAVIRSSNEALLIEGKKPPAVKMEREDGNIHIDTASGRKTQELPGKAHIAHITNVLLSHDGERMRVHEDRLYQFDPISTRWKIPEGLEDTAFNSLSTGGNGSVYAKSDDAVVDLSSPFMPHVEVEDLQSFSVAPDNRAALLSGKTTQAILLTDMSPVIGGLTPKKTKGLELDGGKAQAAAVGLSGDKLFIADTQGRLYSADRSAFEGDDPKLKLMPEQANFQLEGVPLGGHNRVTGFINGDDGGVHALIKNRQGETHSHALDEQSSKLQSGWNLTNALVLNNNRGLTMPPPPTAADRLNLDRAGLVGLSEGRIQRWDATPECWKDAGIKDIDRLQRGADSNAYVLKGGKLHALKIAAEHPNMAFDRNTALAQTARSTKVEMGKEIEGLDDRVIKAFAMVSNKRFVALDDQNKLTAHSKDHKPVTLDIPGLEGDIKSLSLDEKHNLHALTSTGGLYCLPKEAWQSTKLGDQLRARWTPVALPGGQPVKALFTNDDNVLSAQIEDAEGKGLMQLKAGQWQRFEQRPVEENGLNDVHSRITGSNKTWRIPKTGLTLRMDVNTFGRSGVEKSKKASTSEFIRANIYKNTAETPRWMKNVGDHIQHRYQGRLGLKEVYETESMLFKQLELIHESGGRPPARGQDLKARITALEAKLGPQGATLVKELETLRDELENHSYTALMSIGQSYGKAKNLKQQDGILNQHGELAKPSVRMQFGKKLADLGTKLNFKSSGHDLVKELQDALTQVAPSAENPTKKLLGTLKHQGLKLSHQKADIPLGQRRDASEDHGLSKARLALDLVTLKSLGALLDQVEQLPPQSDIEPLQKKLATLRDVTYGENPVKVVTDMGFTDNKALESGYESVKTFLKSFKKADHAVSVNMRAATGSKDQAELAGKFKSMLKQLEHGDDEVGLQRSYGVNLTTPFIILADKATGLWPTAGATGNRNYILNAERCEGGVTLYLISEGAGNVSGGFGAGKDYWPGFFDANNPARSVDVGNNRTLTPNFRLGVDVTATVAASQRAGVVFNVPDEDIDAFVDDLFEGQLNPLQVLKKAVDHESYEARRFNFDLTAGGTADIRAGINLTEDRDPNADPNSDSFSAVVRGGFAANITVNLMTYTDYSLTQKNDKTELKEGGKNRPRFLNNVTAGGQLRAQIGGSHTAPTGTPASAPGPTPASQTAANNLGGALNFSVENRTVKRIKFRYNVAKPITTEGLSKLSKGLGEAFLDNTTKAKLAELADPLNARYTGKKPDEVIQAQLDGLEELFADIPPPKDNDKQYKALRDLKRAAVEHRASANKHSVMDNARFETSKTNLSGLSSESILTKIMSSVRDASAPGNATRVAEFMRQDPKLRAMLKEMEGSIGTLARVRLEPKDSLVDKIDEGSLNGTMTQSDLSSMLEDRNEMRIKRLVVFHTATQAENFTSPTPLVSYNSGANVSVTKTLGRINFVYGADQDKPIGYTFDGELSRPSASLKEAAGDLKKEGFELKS", "test": "fluorescent dye uptake, Xenopus oocytes", "format": "cell-based", "details": "permeation through channel; ND96 bath saline with fluorescein, 20 h"}, "AvrE [4]": {"molecular_target": "T2, AvrE", "test": "two-electrode voltage clamp, Xenopus oocytes", "format": "cell-based", "details": "50 mV test pulse; ND96 saline, pH 7.5; inhibitor in bath saline"}, "DspE (MBP-DspE)": {"molecular_target": "T3, DspE (MBP-DspE) (Erwinia amylovora, UniProt O54581)", "T3 construct": "full-length, N-terminal MBP-His8-PPX-FLAG tag kept; E. coli BL21(DE3); reconstituted in soybean liposomes; printed UniProt entry is strain Ea321, cloned gene from Ea273", "test": "liposome carboxyfluorescein release inhibition", "format": "biochemical", "details": "20 mM HEPES, 300 mM NaCl, pH 8.0; 0.05-0.15 μM DspE; soybean lipid liposomes; channel blocker"}}, "data": [{"molecule": "NCCNC(=O)CCN(CCC(=O)NCCN)CCN(CCC(=O)NCCN)CCC(=O)NCCN", "note": "[G0, PAMAM G0]", "values": [{"measurement": "inhibition at 10000 µM", "setting": "DspE [1]; read-out: % inhibition at 10 mM", "value": 68, "unit": "%"}]}, {"molecule": "O=C1OC2(c3ccc(O)cc3Oc3cc(O)ccc32)c2ccccc21", "note": "[fluorescein]", "values": [{"measurement": "fluorescent dye uptake, Xenopus oocytes", "setting": "DspE [2]", "value": "fluorescein entered oocytes expressing DspE or AvrE, whereas eGFP could not"}, {"measurement": "fluorescent dye uptake, Xenopus oocytes", "setting": "AvrE [3]", "value": "fluorescein entered oocytes expressing DspE or AvrE, whereas eGFP could not"}]}, {"molecule": "PAMAM G1", "values": [{"measurement": "% inhibition at 10 mM", "setting": "DspE [1]; 50 mV test pulse, ND96 saline, pH 7.5, inhibitor in bath saline", "value": 71, "unit": "%"}, {"measurement": "% inhibition at 10 mM", "setting": "AvrE [4]", "value": 93, "unit": "%"}, {"measurement": "IC50", "setting": "DspE (MBP-DspE)", "value": 31, "unit": "µM"}]}]}
